In PMC6386909, “Dasatinib/HP-β-CD Inclusion Complex Based Aqueous Formulation as a Promising Tool for the Treatment of Paediatric Neuromuscular Disorders” (International Journal of Molecular Sciences, 2019):
Where “and” joins values, the source holds several entries; their conditions need not be identical. Equal values may be shown once.

Columns and labels:
[1] = DAS solubility at 25 °C in different environments; assay type: physicochemical; settings: pH 6, Water (ultrapure, pH about 6.0)
Protocol: (§1) The phase solubility study was conducted in accordance with Higuchi and Connors. In detail, DAS was added in excess to an aqueous solution containing HP-β-CD in the appropriate concentration (0–10% w/v) until saturation and the suspensions thus obtained were placed in 4 mL vials with screw cap to avoid changes that are caused by evaporation. The obtained mixtures were vortexed for about 5 min and then placed in a thermostat bath at 25 °C for three days.
(§2) Subsequently, an aliquot of the aqueous phase of each mixture was transferred into a 5 mL glass syringe and filtered through a 0.22 μm cellulose acetate membrane filter (Millipore®, Milan, Italy).
(§3) The obtained filtrate was suitably diluted and subjected to subsequent HPLC analysis for the quantification of the drug. All of the determinations were conducted in triplicate.

[2] = Phase solubility study of DAS with HP-β-CD in water (Higuchi-Connors); assay type: physicochemical; settings: 25 °C
Protocol: as §1, §2, §3
The obtained data were used to determine the apparent stability 1:1 constant (K1:1) of the DAS/HP-β-CD inclusion complex, using the slope of the phase solubility diagrams straight line, as reported by Higuchi and Connors in the following equation:(1) K1:1=slope/S0(1−slope) where S0 represents DAS solubility in absence of cyclodextrin determined in the same way.

[3] = Dissolution studies at 37 °C (BIODIS USP III apparatus); assay type: physicochemical; settings: HCl 0.05 M pH 1.2, 37 °C, after approximately 420 min
Protocol: Dissolution experiments were performed at 37 °C using a BIODIS USP III apparatus (Varian Inc., Cary North Carolina, CA, USA), equipped with a rod stirrer maintaining a rotational speed of 100 rpm during the test. Samples of DAS or DAS/HP-β-CD solid complex, equivalent to about 2 mg of DAS, were suspended in the dissolution medium (80 mL of 0.05 M phosphate buffer at pH 7.4 or HCl 0.05 M pH = 1.2). The volume of 80 mL was chosen taking into account the HPLC quantification limit for the determination of DAS.
At predetermined time intervals, 600 µL of suspension were collected and, in order to keep constant the initial volume, 600 μL of the same dissolution medium previously thermostated at the same temperature were added. Samples were subsequently filtered using a 0.22 µm membrane filter (Millipore® cellulose acetate), and the filtrates thus obtained were subjected to HPLC analysis after appropriate dilution. For quantitative analysis the calibration curve previously constructed was used and the dissolution profiles shown correspond to the average of three determinations.

C2C12 cells = assay: Cytotoxicity / cell viability (CCK-8); assay type: cell-based, murine; settings: C2C12 myoblasts, 0.1–100 μM, 5 h treatment
Protocol: C2C12 myocytes were cultured in DMEM that was supplemented with 10% fetal bovine serum, 1% penicillin, 1% streptomycin and 1% glutamine and were maintained at 37 °C in 5% CO2/95% air. Cell viability was evaluated by measuring the succinic dehydrogenases activity in the cell suspension using the cell counting Kit-8 (CCK-8) (Sigma Aldrich), which utilizes a highly water-soluble tetrazolium salt and whose detection sensitivity is higher than other tetrazolium salts.
Cells were seeded in 96-well cultures at a density of approximately 4.5 × 10^3 cells per well and then cultured for 16 h. Afterwards, the cells were treated for 5 h with free DAS (in DMSO <0.15% in order to ensure cellular vitality) or complexed with HP-β-CD, but at the same concentration calculated on the basis of the incorporation degree, both being dissolved in DMEM. Following exposure, 10 μL of CCK-8 were added into each well and then the plate was incubated for additional two hours. The absorbance at 450 nm was measured using a spectrophotometer (microplate reader Victor V31420–40; PerkinElmer, Wellesley, Massachusetts). […] The results are expressed as the percentage of the control and presented as the mean ± SD. Each data is from 24–48 replicates (wells) and 6–9 different culture dishes.

[4] = Pharmacokinetic analysis of DAS in quadriceps and liver after oral treatment; assay type: in vivo, C57Bl/6J mice; settings: DAS/HP-β-CD inclusion complex 15 mg/kg in drinking water for 1 week, WT mice
Protocol: A total of 10 sedentary WT male mice C57Bl/6J (Charles River, Italy for Jackson Laboratories), homogeneous for age and body weight (BW) were divided into 2 groups as follows: 4 WT mice vehicle-treated (HP-β-CD 10%) and 6 WT mice treated with DAS/HP-β-CD inclusion complex at the dose of 15 mg/Kg. Drug and vehicle were administered in drinking water for 1 week.
In detail, analysis was performed in quadriceps (Quad) and livers of treated animals. Tissues were individually weighed into a "FastPrep" tube and PBS was added (3:1 ratio). Each tube was placed in the fast prep homogenizer on a predetermined 1min cycle to ensure complete homogenization. 40 µL of each homogenate was aliquoted to a fresh tube and 50 µL of MeOH plus 150 µL of Methanol-containing Internal standard (25 ng/mL Imipramine HCl) was added. Each sample was mixed on a Bioshake for 1 min and then transferred to the freezer at −20 °C for at least two hours prior centrifugation at 2500 × g for 20 min. The supernatants were then transferred to a 96-well plate for sampling by the LC-MS/MS. A Thermo TSQ Quantiva with Thermo Vanquish UHPLC system was used (Thermo Fisher Scientific Inc, Milan, Italy). […] Quantitative analysis was conducted by MRM at 232.06 to 401.11 m/z for DAS inclusion complex and at 86.10 to 193.04 m/z for the internal standard Imipramine. […]

[5] = design: method as in PMID 26604135; settings: cited from earlier work
Src-TK = system: Src-TK; design: method as in PMID 25658745; settings: cited from earlier work
cancer cell growth = settings: no reference given; cited from earlier work
[6] = known values, no reference given; cited from earlier work

solubility at 3 days ([1]; read-out: DAS Solubility): 1.33 µM
solubility at 3 days ([1]; read-out: DAS Solubility (mg/mL)): 0.000649 mg/mL
1:1 apparent formation (complexation) constant K1:1 ([2]; DAS with HP-β-CD, from linear portion (0–6% HP-β-CD) of the phase solubility diagram): 922.13 M⁻¹
solubility at 3 days ([2]; aqueous HP-β-CD solution, aqueous with cosolvent or surfactant or cyclodextrin, thermodynamic from solid, 6% w/v of HP-β-CD, read-out: DAS aqueous solubility in the presence of HP-β-CD): 29 µM and 14 µg/mL
quantity of drug dissolved [3]: approximately 81%
Structure (SMILES): Cc1nc(Nc2ncc(C(=O)Nc3c(C)cccc3Cl)s2)cc(N2CCN(CCO)CC2)n1 [DAS, N-(2-chloro-6-methylphenyl)-2-[[6-[4-(2-hydroxyethyl)piperazin-1-yl]-2-methylpyrimidin-4-yl]amino]-1,3-thiazole-5-carboxamide]
cytotoxic effect on cell viability (C2C12 cells): cytotoxic only at high concentrations
DAS levels in quadriceps and livers [4]: Appreciable drugs’ levels were found in quadriceps and livers
pKa [5]: 10.28
inhibition of Src-TK, concentration range (Src-TK): nanomolar range
IC50 values known to inhibit cancer cell growth (cancer cell growth): nM range
therapeutic plasma levels [6]: low µM values
